How the values were obtained:
Glycogen phosphorylase a = Glycogen phosphorylase a activity in isolated rat hepatocytes (insulin-like activity); format: cell-based; conditions: for Activity of liver cells: Glycogen Phosphorylase a activity: isolated rat hepatocytes, Extract 1 200 μg/ml, Extract 3 1 ng/ml, Insulin 1 ng/ml, Inositol 100-100 μg/ml
Protocol: (§1) Isolated hepatocytes were prepared from control animals by a modification of the double perfusior technique of Seglen (1973) involving anaesthetising he animal with halothane/nitrous oxide and inserting a cannula into the hepatic portal vein. The liver was subsequently perfused first with a calcium-free buffer and then with collagenase solution. The isolated cells were freed from the connective tissue by gentle combing. Hepatocytes were suspended in Ham's F-10 nutrient solution, Williams' medium E or Krebs-Henseleit medium depending on the assay to be performed.
(§2) Glycogen phosphorylase a activity, as an index of insulin-like or glucagon antagonist activity can be measured using falling logarithmic concentrations of analyte in the presence or absence of insulin or glucagon.
Isolated hepatocytes, suspended in Krebs-Henseleit solution at a concentration of 10^6 cells/ml, were treated with Artemisia extract at a concentration of […] (final concentration) in the presence or absence of insulin (10^−7M) or glucagon ([…]) for 2 minutes in a shaking water bath at 37° C. under constant oxygenation with 100% oxygen. The cells were subsequently centrifuged for 30s in a Beckman Microfuge and the pellet resuspended in MOPS buffer (pH 6.5) containing sodium fluoride (12.6 g/l), EDTA (1.85 g/l) and a dithiothreitol (0.31 g/l) at 10^6 cells/ml. The suspended cells were homogenised in a Potter-Elvehjem homogeniser and the homogenate centrifuged at 300×g in a Damon-IEC refrigerated centrifuge at 4° C. for 10 minutes. The resultant supernatant was used to assay for glycogen phosphorylase a activity as described by Preiksatis & Kunos (1979). This technique involves the measurement of [^14C]glycose-1-phosphate to glycogen conversion in the presence of caffeine to inhibit glycogen phosphorylase b activity.
Each fraction was carefully evaporated to dryness and weighed in a tared vessel. The dried samples were redissolved in methanol (100 μl) and (100 μl of H2O for the void volume) and subjected to chromatography. […]

[1] = dietary supplementation; The Lancet May 20, 1989; cited from earlier work
[2] = test system: androst-4-ene 3, 17-dione metabolism; assay: Steroid metabolism (androst-4-ene 3, 17-dione metabolism) of liver cells; format: cell-based, rat; conditions: STZ diabetic rats; Extract 1 200 μg/ml, Extract 2 10-120 μg/ml, Extract 3 1 ng/ml, Insulin 1 ng/ml, Inositol 100-100 μg/ml
Protocol: Isolated hepatocytes were prepared from control animals by a modification of the double perfusior technique of Seglen (1973) involving […] animal with halothane/nitrous oxide and inserting a cannula into the hepatic portal vein. The liver was subsequently perfused first with a calcium-free buffer and then with collagenase solution. The isolated cells were freed from the connective tissue by gentle combing. Hepatocytes were suspended in Ham's F-10 nutrient solution, Williams' medium E or Krebs-Henseleit medium depending on the assay to be performed. The effects of Extract 1 on steroid metabolism in liver cells was also studied. The animals were killed by CO2 asphyxiation and the liver quickly exised and placed in ice-cold buffer (0.1M phosphate buffer, pH 7.4). The liver was homogenised using a Potter-Elvehjem homogeniser with a teflon pestle and microsomes were prepared by differential centrifugation. The microsomes were resuspended by gentle homogenisation in the same buffer. The protein content was measured by the method of Lowry using bovine serum albumin as standard and the microsomes were diluted by 10 mg protein/ml. The diluted microsomes were assayed for aniline 4-hydroxylase activity and aminopyrine N-demethylase activity (results not shown) and for androst-4-ene 3, 17-dione metabolism using published methodology. […]

[3] = test system: Escherichia coli and Salmonella typhimurium; assay: Ames bacterial mutagenicity test, liver fraction supplemented; format: cell-based; conditions: Ames test with liver fraction
Source text: Escherichia coli and Salmonella typhimurium were used in the Ames test (B. N. Ames, J. McCann, E. Yamasaki—Mutation Res. 31 (1975) 347). The bacteria used carry a mutation which makes them dependent upon the presence of a specific nutrient medium for growth. If the test substance added to the growth medium of a plate of such bacteria is mutagenic, then a small proportion of the mutations it induces will cause the nutrient dependency mutation to revert, so that the bacteria will synthesise the nutrient and grow even in its absence. Observing whether colonies grow on nutrient deficient plates in the presence and absence of the test substance will thus reveal whether the substance is mutagenic and can give a measure of the mutagenicity of the substance.

glucagon response = assay: Glycogen phosphorylase a activity in isolated hepatocytes in the presence of glucagon (glucagon antagonist activity); format: cell-based, rat; conditions: Extract 1 200 μg/ml, Extract 3 1 ng/ml, Insulin 1 ng/ml
Protocol: as §1, §2
Isolated hepatocytes, suspended in Krebs-Henseleit solution at a concentration of 10^6 cells/ml, were treated with Artemisia extract at a concentration of […] (final concentration) in the presence or absence of insulin (10^−7M) or glucagon ([…]) for 2 minutes in a shaking water bath at 37° C. under constant oxygenation with 100% oxygen. The cells were subsequently centrifuged for 30s in a Beckman Microfuge and the pellet resuspended in MOPS buffer (pH 6.5) containing sodium fluoride (12.6 g/l), EDTA (1.85 g/l) and a dithiothreitol (0.31 g/l) at 10^6 cells/ml. […]

STZ Diabetic Rats = assay: Antidiabetic activity in STZ diabetic rats; format: in vivo, rat; conditions: Extract 2 10-120 μg/ml po
Protocol: This extract, referred to as Extract 1 or Fraction 1, was tested in rats rendered diabetic by administration of Streptotozocin (STZ), and in in vitro tests for insulin-like activity. Toxicity was tested in a bacterial (Ames) mutagenicity test.
Urine was tested for the presence of ketones and glucose using Keto-Diabur Test 5000 sticks (Boehringer Mannheim, Lewes, UK). Glucose was assayed by the glucose oxidase method as described by Trinder (1969) using a kit supplied by the Sigma Chemical Co Ltd, Pool, UK)
The animals were monitored for 7 day periods before being made diabetic, after induction of diabetes by administration of STZ and during Artemisia treatment, so that each animal acted as its own control. Food intake rose after induction of diabetes and fell again following treatment with Artemisia.

[4] = Extract 1 200 μg/ml po, Extract 3 1 ng/ml po, Insulin 1 ng/ml sc

| Molecule | Activity of liver cells: Glycogen Phosphorylase a activity (Glycogen phosphorylase a) | activity in the in vitro liver cell system (Glycogen phosphorylase a; levels of up to 1 mg/ml) | improvement of nerve function in the management of complications of diabetes mellitus [1] | Activity of liver cells: Steroid metabolism [2] | Bacterial mutagenicity [3] | Activity of liver cells: Effect on glucagon response (glucagon response) | Excessive food intake (STZ Diabetic Rats; Extract 1 200 μg/ml po (drinking water), Extract 3 1 ng/ml po, Insulin 1 ng/ml sc) | Diuresis (STZ Diabetic Rats; Extract 1 200 μg/ml po) | Glucosuria (STZ Diabetic Rats; [4]) | Ketonuria (STZ Diabetic Rats; [4]) | Weight gain (STZ Diabetic Rats; [4]) |
| --- | --- | --- | --- | --- | --- | --- | --- | --- | --- | --- | --- |
| O[C@H]1[C@H](O)[C@@H](O)[C@H](O)[C@@H](O)[C@H]1O [Inositol] | negative | inactive | no evidence | negative |  |  |  |  |  |  |  |
| Insulin | decreased *** |  |  | restored * | negative | reversed *** | reversed | reduced | reduced | reduced | normalised |

— US6350478B1, “Artemisia judaica fractionation method” (Phytotech Limited, priority 1996, dated 2002)
